# Measured values taken from patent US9283235B2, “Intermittent lowering of cortisol as treatment of clinical conditions associated with abnormal concentrations of cortisol in animals” (Stegram Pharmaceuticals Limited, priority 2001, dated 2016).
# Values joined by “and” are separate entries in the source; they are usually repeats but may differ in a detail not shown here. Equal entries are not always repeated. “Also recorded” adds a separate entry of the source.
# What was measured:
# [1] = test system: serum cortisol; assay: Mean serum cortisol over 24 hours (4-hourly samples) in horses with Cushing's disease; format: in vivo, horse
# Procedure: The ability of intermittent administration of Trilostane to block adrenal steroidogenesis was assessed in twenty horses (mean age 21, SD 5.7 years) with equine Cushing's disease. The combined dexamethasone suppression thyrotropin releasing hormone (TRH) stimulation test (17 horses) or TRH stimulation test (3 horses) was used as a standard test of function of the hypothalamic-pituitary-adrenal axis. Serum samples for cortisol analysis were collected via indwelling catheter at 4-hourly intervals over 24 hours on each of the test periods. These were before treatment then at 210 minutes (30 min after I mg i.v. TRH) and 22 hours after […] dexamethasone i.m. Affected horses were treated with 0.4 to 1 mg/kg, (mean 0.5 mg/kg) trilostane administered once daily in feed for a period of 30 days. After 30 days endocrine testing was repeated. Serum cortisol before and after treatment was compared by paired t-test.
# [2] = test system: dogs with hyperadrenocorticism (HAC); assay: Prospective study of trilostane in dogs with spontaneous hyperadrenocorticism (HAC): clinical signs and survival; format: in vivo, dog
# Procedure: Animals were entered into a prospective study and all animals required clinical and laboratory signs of hyperadrenocorticism as well as a final diagnosis of this disease. Data collected from each case included a clinical-historicy and physical examination, full blood count (CBC), serum biochemical profile, urinalysis and abdominal ultrasound. An ACTH-stimulation test was performed in all dogs. […] Dogs that had been treated for HAC other medication needed to be off these drugs for at least 10 days. Dogs with renal or hepatic insufficiency and dogs that received steroids were not included in the study.
# Dogs with pituitary dependant hyperadrenocorticism or adrenal tumour which was unresectable or the owners were unwilling to have surgery performed, respectively, were treated with trilostane. The initial dose for dogs[…] was 30 mg once daily, dogs between 5 and 15 kg received 60 mg once daily and dogs>15 kg received 120 mg once daily. Dosages were adjusted based on clinical signs, blood biochemical parameters and an ACTH stimulation test.
# Follow-up re-examinations took place after 10 days, 4 weeks, 3 mouths, 6 months and then every 6 months or within 4 weeks of adjusting the dosage. At these points, owners were carefully questioned about their perception of the dogs general well being, dissolution of clinical signs and potential side effects and a physical examination was performed. A full biochemical profile and an ACTH stimulation test were carried out. Further tests such as urinanalysis, urine culture, thoracic radiographs, etc. were done if deemed necessary. If the clinical sips of hyperadrenocorticism (polyuria/polydipsia, polyphagia, exercise intolerance, etc.) were still present and if the post-ACTH cortisol concentration remained above 220 nmol/l, trilostane was given twice daily at the same dosage.
# [3] = mean of all horses, once daily 0.4-1.0 mg/k for 30 days
smiles,measurement,setting,value
"CC12CCC3C(CC[C@@]45O[C@@H]4C(=O)C(C#N)CC35C)C1CC[C@@H]2O (stereo partly drawn) [Trilostane, 2α-cyano-4α,5α-epoxyandrostan-17β-ol-3-one]","Change of serum cortisol concentrations pre vs post trilostane, in words","[1]; horses, once daily dose, 30 days",only a small drop in cortisol levels; also recorded: no apparent change in cortisol concentrations
same,"Mean Cortisol concentrations over 24 hrs, POST TREATMENT Mean","[1]; individual horses, mean of 6 samples at 4-hourly intervals, after 30 days of oral trilostane",108 and 203.7 and 157.3 and 263.3 and 143 and 193 and 122.8 and 134.4 and 112 and 152.3 and 113 and 194.7 and 94.8 and 112.3 and 183.3 and 245.5 and 158 and 164.5 and 160 and 149.8
same,"Serum cortisol, Post Trilosane Mean","[1]; individual horses, mean of 6 samples over 24 hours, once daily 0.4-1.0 mg/k for 30 days, listed as Trilosane",108 nmol/L and 203.7 nmol/L and 157.3 nmol/L and 263.3 nmol/L and 143 nmol/L and 193 nmol/L and 122.8 nmol/L and 134.4 nmol/L and 112 nmol/L and 152.3 nmol/L and 113 nmol/L and 194.7 nmol/L and 94.8 nmol/L and 112.3 nmol/L and 183.3 nmol/L and 245.5 nmol/L and 158 nmol/L and 164 nmol/L and 1 nmol/L and 149 nmol/L
same,"Serum cortisol, Difference, pre-post","[1]; individual horses, once daily 0.4-1.0 mg/k for 30 days, listed as Trilosane",-7.5 nmol/L and -61.2 nmol/L and -0.1 nmol/L and -6.8 nmol/L and 4 nmol/L and -38 nmol/L and -3 nmol/L and -17.1 nmol/L and 11 nmol/L and 10.4 nmol/L and 3.6 nmol/L and 34.6 nmol/L and -2.5 nmol/L and 2.4 nmol/L and -24.5 nmol/L and -80.5 nmol/L and -31.5 nmol/L and 5.5 nmol/L and 15.2 nmol/L and 3.4 nmol/L
same,"Serum cortisol, Difference, pre-post, group mean",[1]; [3],-9.1 ± 26.9 nmol/L
same,"Serum cortisol, Post Trilosane Mean, group mean",[1]; [3],158.3 nmol/L
same,"Mean time to euthanasia or death, dogs with PDH","[2]; 22 dogs, SD 195.1, range 27-730 days",230.9 days
same,"Mean time since commencing treatment, dogs with PDH alive","[2]; 32 dogs, SD 285.2, range 105 to 1120 days",417.3 days
same,Skin abnormalities,"[2]; all dogs with skin abnormalities, 2-3 months after starting",marked improvement with normal hair growth
same,Dogs in which polyuria/polydipsia and polyphagia dissipated within the first 10 days of treatment,"[2]; dog, in vivo",29 dogs
same,Dogs in which polyuria/polydipsia and polyphagia dissipated within the first month of treatment,"[2]; dog, in vivo",14 dogs
same,Dogs with clinical signs improved but always some clinical signs of HAC,"[2]; dog, in vivo",6 dogs
same,Dogs with PDH alive,[2]; of 54 dogs with PDH,32 dogs
same,"Median survival, dogs with adrenal tumour that died or were euthanised","[2]; six dogs, SD 174.9 days",260 days
